{
  "source": "ChEMBL document CHEMBL1201862",
  "about": "“PubChem BioAssay data set” (2004)",
  "format_in_all_cases": "functional",
  "key": {"[1]": {"target": "T1, Kappa-type opioid receptor (Homo sapiens, UniProt P41145)", "T1 sequence (P41145 whole entry)": "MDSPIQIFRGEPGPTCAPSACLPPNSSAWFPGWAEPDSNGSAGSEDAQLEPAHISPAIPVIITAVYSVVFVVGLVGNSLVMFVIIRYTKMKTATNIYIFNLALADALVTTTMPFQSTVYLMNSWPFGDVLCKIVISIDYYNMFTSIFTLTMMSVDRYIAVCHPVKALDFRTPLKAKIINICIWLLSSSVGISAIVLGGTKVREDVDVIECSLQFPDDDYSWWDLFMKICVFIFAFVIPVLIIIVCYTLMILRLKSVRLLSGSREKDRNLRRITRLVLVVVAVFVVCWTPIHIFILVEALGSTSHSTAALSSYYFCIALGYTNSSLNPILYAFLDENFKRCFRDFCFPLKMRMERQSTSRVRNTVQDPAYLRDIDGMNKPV", "experiment": "kappa opioid receptor activation by imaging – image-based, set 3, SAR follow-up (AID 488833)"}, "Mu-type opioid receptor": {"target": "Mu-type opioid receptor (Homo sapiens, UniProt P35372)", "sequence (P35372 whole entry)": "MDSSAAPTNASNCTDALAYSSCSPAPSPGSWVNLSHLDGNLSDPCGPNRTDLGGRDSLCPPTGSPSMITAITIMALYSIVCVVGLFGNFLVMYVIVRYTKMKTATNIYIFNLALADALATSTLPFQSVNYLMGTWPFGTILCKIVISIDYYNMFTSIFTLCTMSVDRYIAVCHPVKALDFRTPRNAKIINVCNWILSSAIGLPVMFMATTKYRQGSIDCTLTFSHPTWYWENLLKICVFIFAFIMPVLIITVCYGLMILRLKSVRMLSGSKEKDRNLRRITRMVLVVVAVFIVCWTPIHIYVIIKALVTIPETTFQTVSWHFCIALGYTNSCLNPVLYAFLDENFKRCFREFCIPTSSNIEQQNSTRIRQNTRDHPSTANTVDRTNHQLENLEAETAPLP", "experiment": "SAR Analysis of Agonists of the MOR Receptor using an Image-Based Assay - Set 3. [Related pubchem assays (depositor defined):AID1777, AID1785, AID1786, AID1966, AID2133, AID2136, AID2284, AID2285, AID2352]"}, "[2]": {"target": "Delta-type opioid receptor (Homo sapiens, UniProt P41143)", "sequence (P41143 whole entry)": "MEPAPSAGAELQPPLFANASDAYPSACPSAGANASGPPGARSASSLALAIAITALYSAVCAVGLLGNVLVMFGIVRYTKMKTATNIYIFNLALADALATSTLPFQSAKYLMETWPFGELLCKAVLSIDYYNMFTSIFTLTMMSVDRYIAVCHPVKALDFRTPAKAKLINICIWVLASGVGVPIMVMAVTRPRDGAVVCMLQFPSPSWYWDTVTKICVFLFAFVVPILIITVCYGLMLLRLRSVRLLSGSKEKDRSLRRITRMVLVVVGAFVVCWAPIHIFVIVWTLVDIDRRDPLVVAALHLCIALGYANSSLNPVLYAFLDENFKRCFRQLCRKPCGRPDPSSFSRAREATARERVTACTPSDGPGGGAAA", "experiment": "SAR Analysis of Agonists of the DOR Receptor using an Image-Based Assay - Set 3. [Related pubchem assays (depositor defined):AID1777, AID1786]"}, "[3]": {"target": "T1, Kappa-type opioid receptor", "experiment": "SAR analysis of small molecule agonists of the kappa opioid receptor via a luminescent beta-arrestin assay - Set 3. [Related pubchem assays (depositor defined):AID1777, AID1785, AID1786, AID1966, AID2133, AID2136, AID2284, AID2500]"}, "[4]": {"target": "G-protein coupled receptor 55 (Homo sapiens, UniProt Q9Y2T6)", "sequence (Q9Y2T6 whole entry)": "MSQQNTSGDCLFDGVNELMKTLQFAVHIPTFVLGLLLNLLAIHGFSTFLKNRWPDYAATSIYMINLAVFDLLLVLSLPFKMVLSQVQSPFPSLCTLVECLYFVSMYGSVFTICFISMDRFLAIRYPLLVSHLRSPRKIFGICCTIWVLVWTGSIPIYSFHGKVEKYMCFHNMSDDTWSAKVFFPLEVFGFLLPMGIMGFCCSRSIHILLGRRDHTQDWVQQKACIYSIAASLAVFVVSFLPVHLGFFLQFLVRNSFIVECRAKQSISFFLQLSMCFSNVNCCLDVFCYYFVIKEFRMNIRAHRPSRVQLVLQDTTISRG", "experiment": "blockers of GPR55 signalling, imaged – imaging, image-based, counter-screen for GPR35 antagonist project, SAR follow-up (AID 2397)"}, "[5]": {"target": "T2, Tyrosine-protein phosphatase non-receptor type 22 (Homo sapiens, UniProt Q9Y2R2)", "T2 sequence (Q9Y2R2 whole entry)": "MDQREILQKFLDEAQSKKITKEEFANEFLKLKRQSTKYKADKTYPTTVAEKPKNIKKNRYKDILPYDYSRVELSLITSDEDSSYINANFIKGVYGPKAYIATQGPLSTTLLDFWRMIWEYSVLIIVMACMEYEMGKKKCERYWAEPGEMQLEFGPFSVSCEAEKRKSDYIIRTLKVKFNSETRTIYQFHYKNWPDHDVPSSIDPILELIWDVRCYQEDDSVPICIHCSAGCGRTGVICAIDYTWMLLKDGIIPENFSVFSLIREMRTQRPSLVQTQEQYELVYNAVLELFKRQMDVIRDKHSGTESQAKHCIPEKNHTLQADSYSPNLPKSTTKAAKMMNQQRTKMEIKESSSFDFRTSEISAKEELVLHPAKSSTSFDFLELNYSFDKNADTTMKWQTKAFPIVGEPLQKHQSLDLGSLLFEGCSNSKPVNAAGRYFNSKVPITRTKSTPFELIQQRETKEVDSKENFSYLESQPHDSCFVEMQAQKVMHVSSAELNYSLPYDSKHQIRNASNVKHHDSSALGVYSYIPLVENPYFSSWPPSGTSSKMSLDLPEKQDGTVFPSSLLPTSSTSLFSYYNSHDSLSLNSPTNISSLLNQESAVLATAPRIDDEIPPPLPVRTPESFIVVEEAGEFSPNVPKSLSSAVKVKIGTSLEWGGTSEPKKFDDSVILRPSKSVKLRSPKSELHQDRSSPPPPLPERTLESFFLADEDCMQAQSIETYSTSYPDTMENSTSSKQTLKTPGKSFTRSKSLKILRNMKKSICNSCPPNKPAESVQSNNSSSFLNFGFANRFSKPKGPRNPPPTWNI", "experiment": "SAR LYP1 Fluorescent Assay using pCAP substrate for In Vitro dose response studies - Set 2. [Related pubchem assays (depositor defined):AID1779, AID1784, AID2135, AID449727]"}, "[6]": {"target": "Tyrosine-protein phosphatase non-receptor type 12 (Homo sapiens, UniProt Q05209)", "sequence (Q05209 whole entry)": "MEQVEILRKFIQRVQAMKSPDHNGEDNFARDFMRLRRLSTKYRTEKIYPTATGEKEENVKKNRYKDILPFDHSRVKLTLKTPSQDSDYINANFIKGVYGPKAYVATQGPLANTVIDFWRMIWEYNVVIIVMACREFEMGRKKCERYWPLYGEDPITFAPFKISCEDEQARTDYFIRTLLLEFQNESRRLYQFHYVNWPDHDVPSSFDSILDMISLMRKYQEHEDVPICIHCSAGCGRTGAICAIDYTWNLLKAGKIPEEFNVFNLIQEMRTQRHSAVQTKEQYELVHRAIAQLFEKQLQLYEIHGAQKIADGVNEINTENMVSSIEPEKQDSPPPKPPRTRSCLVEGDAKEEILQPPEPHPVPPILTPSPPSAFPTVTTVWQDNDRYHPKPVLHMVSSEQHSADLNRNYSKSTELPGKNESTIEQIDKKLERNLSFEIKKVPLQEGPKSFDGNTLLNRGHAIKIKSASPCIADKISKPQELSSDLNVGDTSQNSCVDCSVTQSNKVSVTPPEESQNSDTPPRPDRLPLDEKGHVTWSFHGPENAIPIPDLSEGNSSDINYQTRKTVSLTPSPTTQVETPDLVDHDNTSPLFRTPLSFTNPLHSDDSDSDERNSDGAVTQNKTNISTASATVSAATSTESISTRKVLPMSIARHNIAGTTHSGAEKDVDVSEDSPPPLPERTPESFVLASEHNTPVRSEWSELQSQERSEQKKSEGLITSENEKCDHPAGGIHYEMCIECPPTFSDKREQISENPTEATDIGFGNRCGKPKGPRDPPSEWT", "experiment": "SAR Selectivity Analysis of small molecule inhibitors of PEST using pCAP in a fluorescence assay. [Related pubchem assays (depositor defined):AID1779, AID1784, AID2135]"}, "[7]": {"target": "T2, Tyrosine-protein phosphatase non-receptor type 22", "experiment": "SAR LYP1 Fluorescent Assay using OMFP substrate for In Vitro dose response studies - Set 3. [Related pubchem assays (depositor defined):AID1779, AID1784, AID2140, AID2686]"}, "[8]": {"target": "T3, Tyrosine-protein phosphatase non-receptor type 7 (Homo sapiens, UniProt P35236)", "T3 sequence (P35236 whole entry)": "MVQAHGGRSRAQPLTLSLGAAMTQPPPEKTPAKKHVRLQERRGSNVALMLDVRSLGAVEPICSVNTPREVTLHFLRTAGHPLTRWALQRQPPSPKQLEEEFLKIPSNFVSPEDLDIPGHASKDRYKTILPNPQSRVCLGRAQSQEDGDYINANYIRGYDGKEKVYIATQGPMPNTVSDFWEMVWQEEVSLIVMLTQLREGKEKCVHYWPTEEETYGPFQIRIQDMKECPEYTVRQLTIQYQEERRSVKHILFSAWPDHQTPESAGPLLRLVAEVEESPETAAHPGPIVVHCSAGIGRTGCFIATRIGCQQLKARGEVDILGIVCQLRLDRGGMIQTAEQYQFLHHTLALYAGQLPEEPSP", "experiment": "inhibition of hematopoietic tyrosine phosphatase HePTP – biochemical, set 2, SAR follow-up (AID 449736)"}, "[9]": {"target": "T2, Tyrosine-protein phosphatase non-receptor type 22", "experiment": "inhibition of lymphoid tyrosine phosphatase LYP – biochemical, pCAP fluorogenic substrate, fluorescence, set 3, SAR follow-up (AID 449727)"}, "[10]": {"target": "T2, Tyrosine-protein phosphatase non-receptor type 22", "experiment": "SAR LYP1 Fluorescent Assay using OMFP substrate for In Vitro dose response studies - Set 2. [Related pubchem assays (depositor defined):AID1779, AID1784, AID2140, AID449726, AID488869]"}, "[11]": {"target": "Intestinal-type alkaline phosphatase (Homo sapiens, UniProt P09923)", "sequence (P09923 whole entry)": "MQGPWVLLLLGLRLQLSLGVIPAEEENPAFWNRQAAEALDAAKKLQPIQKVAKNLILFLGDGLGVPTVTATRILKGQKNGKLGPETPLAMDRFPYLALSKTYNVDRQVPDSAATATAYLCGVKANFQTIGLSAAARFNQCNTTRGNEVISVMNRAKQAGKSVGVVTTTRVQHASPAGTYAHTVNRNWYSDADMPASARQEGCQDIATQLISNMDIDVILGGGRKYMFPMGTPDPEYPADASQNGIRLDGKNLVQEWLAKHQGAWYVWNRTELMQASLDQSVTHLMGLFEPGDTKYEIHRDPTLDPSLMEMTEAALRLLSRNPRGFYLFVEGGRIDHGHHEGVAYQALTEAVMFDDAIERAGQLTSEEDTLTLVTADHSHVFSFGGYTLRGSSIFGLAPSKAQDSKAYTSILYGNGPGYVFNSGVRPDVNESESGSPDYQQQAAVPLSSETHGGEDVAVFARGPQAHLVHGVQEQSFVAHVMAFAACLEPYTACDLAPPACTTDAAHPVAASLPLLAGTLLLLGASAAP", "experiment": "activation of human intestinal alkaline phosphatase – biochemical, dose response (AID 488873)"}, "[12]": {"target": "Intestinal-type alkaline phosphatase (Mus musculus, UniProt P24822)", "sequence (P24822 whole entry)": "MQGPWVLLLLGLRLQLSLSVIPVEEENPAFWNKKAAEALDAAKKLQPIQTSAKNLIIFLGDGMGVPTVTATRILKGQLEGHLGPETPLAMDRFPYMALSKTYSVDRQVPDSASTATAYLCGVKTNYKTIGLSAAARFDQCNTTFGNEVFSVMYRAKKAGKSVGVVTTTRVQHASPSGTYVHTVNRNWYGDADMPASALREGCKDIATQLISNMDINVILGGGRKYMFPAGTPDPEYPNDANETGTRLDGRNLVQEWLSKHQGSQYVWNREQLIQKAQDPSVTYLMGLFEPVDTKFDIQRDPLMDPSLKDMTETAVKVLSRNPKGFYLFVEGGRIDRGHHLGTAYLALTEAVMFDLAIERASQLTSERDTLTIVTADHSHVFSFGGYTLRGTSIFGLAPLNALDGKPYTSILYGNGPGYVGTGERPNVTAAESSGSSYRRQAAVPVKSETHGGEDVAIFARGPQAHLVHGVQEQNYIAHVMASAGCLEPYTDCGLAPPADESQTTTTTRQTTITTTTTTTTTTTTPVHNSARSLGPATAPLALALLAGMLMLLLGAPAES", "experiment": "mouse intestinal alkaline phosphatase activators, dose response, biochemical, luminescence, uHTS hits (AID 488783)"}, "[13]": {"target": "T4, Alkaline phosphatase, tissue-nonspecific isozyme (Homo sapiens, UniProt P05186)", "T4 sequence (P05186 whole entry)": "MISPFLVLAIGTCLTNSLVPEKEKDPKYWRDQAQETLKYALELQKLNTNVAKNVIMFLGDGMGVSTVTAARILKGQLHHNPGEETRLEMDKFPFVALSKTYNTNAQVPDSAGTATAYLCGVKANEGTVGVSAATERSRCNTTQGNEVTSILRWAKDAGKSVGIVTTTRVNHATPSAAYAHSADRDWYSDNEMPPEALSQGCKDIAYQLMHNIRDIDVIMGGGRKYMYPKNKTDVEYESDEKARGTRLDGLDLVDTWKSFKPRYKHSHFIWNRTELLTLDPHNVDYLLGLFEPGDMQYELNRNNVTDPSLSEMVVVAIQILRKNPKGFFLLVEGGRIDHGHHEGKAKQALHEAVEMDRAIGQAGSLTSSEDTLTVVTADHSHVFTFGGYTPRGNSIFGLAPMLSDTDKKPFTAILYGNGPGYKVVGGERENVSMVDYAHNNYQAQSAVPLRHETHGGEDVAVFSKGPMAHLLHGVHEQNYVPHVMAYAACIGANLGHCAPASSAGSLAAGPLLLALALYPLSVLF", "experiment": "activation of tissue-nonspecific alkaline phosphatase – biochemical, TNAP isozyme, mouse IAP uHTS hits, selectivity assay for mouse IAP activator project, dose response (AID 488880)"}},
  "note": "Calls of active or inactive are those of the source.",
  "data": [
    {"smiles": "Fc1cc(F)cc(CSc2nnc(-c3ccccn3)n2Cc2cccs2)c1", "values": [
      {"measurement": "EC50", "setting": "[1]", "result": "3.58 µM (active)"},
      {"measurement": "EC50", "setting": "Mu-type opioid receptor", "result": "> 32 µM (inactive)"},
      {"measurement": "EC50", "setting": "[2]", "result": "> 32 µM (inactive)"},
      {"measurement": "EC50", "setting": "[3]", "result": "7.2 µM (active)"}
    ]},
    {"smiles": "Fc1ccc(N2CCN(c3ncnc4c3cnn4Cc3ccc(Cl)cc3Cl)CC2)cc1", "values": [
      {"measurement": "IC50", "setting": "[4]", "result": "> 32 µM (inactive)"}
    ]},
    {"smiles": "O=C(O)COc1ccc(NC(=O)COc2ccc(Cl)cc2)cc1", "values": [
      {"measurement": "IC50", "setting": "[5]", "result": "> 100 µM (inactive)"},
      {"measurement": "IC50", "setting": "[6]", "result": "> 100 µM (inactive)"},
      {"measurement": "IC50", "setting": "[7]", "result": "> 100 µM (inactive)"},
      {"measurement": "IC50", "setting": "[8]", "result": "> 100 µM (inactive)"},
      {"measurement": "IC50", "setting": "[9]", "result": "> 100 µM (inactive)"},
      {"measurement": "IC50", "setting": "[10]", "result": "> 100 µM (inactive)"}
    ]},
    {"smiles": "COc1ccc(NC(=O)CCNS(=O)(=O)c2ccc3[nH]c(=O)oc3c2)cc1Cl", "values": [
      {"measurement": "EC50", "setting": "[11]", "result": "42.8 µM (active)"},
      {"measurement": "EC50", "setting": "[12]", "result": "20.5 µM (active)"},
      {"measurement": "EC50", "setting": "[13]", "result": "39.6 µM (active)"}
    ]}
  ]
}
